# Experimental data reported in PubChem BioAssay (NCI).
#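 48-hour exposure; five concentrations; linearly interpolated endpoints. The concentration for 50% growth inhibition is given as GI50. TGI marks complete inhibition of growth.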
# Columns and labels:
# Test in all cases: NCI tumour cell line growth inhibition, 48 h
# A498 renal = system: A498 renal
# A549 NSCLC = system: A549 NSCLC
# ACHN renal = system: ACHN renal
# BT-549 breast = system: BT-549 breast
# CCRF-CEM leukemia = system: CCRF-CEM leukemia
# COLO 205 colon = system: COLO 205 colon
# DU-145 prostate = system: DU-145 prostate
# EKVX NSCLC = system: EKVX NSCLC
# HCC-2998 colon = system: HCC-2998 colon
# HCT-116 colon = system: HCT-116 colon
# HCT-15 colon = system: HCT-15 colon
# HL-60(TB) leukemia = system: HL-60(TB) leukemia
# HOP-62 NSCLC = system: HOP-62 NSCLC
# HOP-92 NSCLC = system: HOP-92 NSCLC
# HT29 colon = system: HT29 colon
# IGROV1 ovarian = system: IGROV1 ovarian
# KM12 colon = system: KM12 colon
# M14 melanoma = system: M14 melanoma
# MALME-3M melanoma = system: MALME-3M melanoma
# MCF7 breast = system: MCF7 breast
# MDA-MB-231 breast = system: MDA-MB-231 breast
# MOLT-4 leukemia = system: MOLT-4 leukemia
# NCI-H226 lung = system: NCI-H226 lung
# NCI-H460 lung = system: NCI-H460 lung
# NCI-H522 lung = system: NCI-H522 lung
# NCI/ADR-RES ovarian = system: NCI/ADR-RES ovarian
# OVCAR-3 ovarian = system: OVCAR-3 ovarian
# OVCAR-4 ovarian = system: OVCAR-4 ovarian
# OVCAR-5 ovarian = system: OVCAR-5 ovarian
# OVCAR-8 ovarian = system: OVCAR-8 ovarian
# PC-3 prostate = system: PC-3 prostate
# RPMI-8226 leukemia = system: RPMI-8226 leukemia
# RXF 393 renal = system: RXF 393 renal
# SF-268 CNS = system: SF-268 CNS
# SF-539 CNS = system: SF-539 CNS
# SK-MEL-2 melanoma = system: SK-MEL-2 melanoma
# SK-MEL-28 melanoma = system: SK-MEL-28 melanoma
# SK-OV-3 ovarian = system: SK-OV-3 ovarian
# SN12C renal = system: SN12C renal
# SNB-19 CNS = system: SNB-19 CNS
# SR leukemia = system: SR leukemia
# SW-620 colon = system: SW-620 colon
# T-47D breast = system: T-47D breast
# TK-10 renal = system: TK-10 renal
# UACC-257 melanoma = system: UACC-257 melanoma
# UACC-62 melanoma = system: UACC-62 melanoma
# UO-31 renal = system: UO-31 renal
smiles,measurement,setting,value
Cc1cc(O)c(=O)cc2c1C[C@H]1CC(C)(C)/C=C/C[C@]3(C)Oc4cc(=O)c(O)cc(C)c4C[C@H]3C[C@H](O)[C@@]1(C)O2,GI50,A498 renal,25.9 nM
same,TGI,A498 renal,80.9 nM
same,GI50,A549 NSCLC,6.97 nM
same,TGI,A549 NSCLC,> 16700 nM
same,GI50,ACHN renal,6.01 nM
same,TGI,ACHN renal,50.4 nM
same,GI50,BT-549 breast,12.5 nM
same,TGI,BT-549 breast,> 16700 nM
same,GI50,CCRF-CEM leukemia,10.1 nM
same,TGI,CCRF-CEM leukemia,> 16700 nM
same,GI50,COLO 205 colon,5.71 nM
same,TGI,COLO 205 colon,25.8 nM
same,GI50,DU-145 prostate,5.61 nM
same,TGI,DU-145 prostate,> 16700 nM
same,GI50,EKVX NSCLC,11 nM
same,GI50,HCC-2998 colon,20.3 nM
same,TGI,HCC-2998 colon,> 16700 nM
same,GI50,HCT-116 colon,< 1.67 nM
same,TGI,HCT-116 colon,> 16700 nM
same,GI50,HCT-15 colon,2.81 nM
same,TGI,HCT-15 colon,> 16700 nM
same,GI50,HL-60(TB) leukemia,20.2 nM
same,TGI,HL-60(TB) leukemia,128 nM
same,GI50,HOP-62 NSCLC,5.72 nM
same,TGI,HOP-62 NSCLC,40.1 nM
same,GI50,HOP-92 NSCLC,5.54 nM
same,TGI,HOP-92 NSCLC,112 nM
same,GI50,HT29 colon,3.1 nM
same,TGI,HT29 colon,> 16700 nM
same,GI50,IGROV1 ovarian,16.3 nM
same,TGI,IGROV1 ovarian,> 16700 nM
same,GI50,KM12 colon,7.17 nM
same,TGI,KM12 colon,> 16700 nM
same,GI50,M14 melanoma,11.7 nM
same,TGI,M14 melanoma,140 nM
same,GI50,MALME-3M melanoma,6.36 nM
same,TGI,MALME-3M melanoma,32 nM
same,GI50,MCF7 breast,3.81 nM
same,TGI,MCF7 breast,> 16700 nM
same,GI50,MDA-MB-231 breast,19.9 nM
same,TGI,MDA-MB-231 breast,> 16700 nM
same,GI50,MOLT-4 leukemia,7.93 nM
same,TGI,MOLT-4 leukemia,> 16700 nM
same,GI50,NCI-H226 lung,24 nM
same,GI50,NCI-H460 lung,< 1.67 nM
same,TGI,NCI-H460 lung,17.3 nM
same,GI50,NCI-H522 lung,7.68 nM
same,TGI,NCI-H522 lung,51.7 nM
same,GI50,NCI/ADR-RES ovarian,8.45 nM
same,GI50,OVCAR-3 ovarian,12 nM
same,TGI,OVCAR-3 ovarian,> 16700 nM
same,GI50,OVCAR-4 ovarian,12 nM
same,TGI,OVCAR-4 ovarian,> 16700 nM
same,GI50,OVCAR-5 ovarian,13.6 nM
same,TGI,OVCAR-5 ovarian,> 16700 nM
same,GI50,OVCAR-8 ovarian,6.1 nM
same,TGI,OVCAR-8 ovarian,> 16700 nM
same,GI50,PC-3 prostate,5.38 nM
same,TGI,PC-3 prostate,> 16700 nM
same,GI50,RPMI-8226 leukemia,8.31 nM
same,TGI,RPMI-8226 leukemia,> 16700 nM
same,GI50,RXF 393 renal,10.5 nM
same,TGI,RXF 393 renal,142 nM
same,GI50,SF-268 CNS,7.71 nM
same,TGI,SF-268 CNS,> 16700 nM
same,GI50,SF-539 CNS,10.4 nM
same,TGI,SF-539 CNS,71.4 nM
same,GI50,SK-MEL-2 melanoma,8.83 nM
same,TGI,SK-MEL-2 melanoma,496 nM
same,GI50,SK-MEL-28 melanoma,15.6 nM
same,TGI,SK-MEL-28 melanoma,> 16700 nM
same,GI50,SK-OV-3 ovarian,10.1 nM
same,TGI,SK-OV-3 ovarian,95.2 nM
same,GI50,SN12C renal,5.11 nM
same,TGI,SN12C renal,> 4910 nM
same,GI50,SNB-19 CNS,< 1.67 nM
same,TGI,SNB-19 CNS,> 16700 nM
same,GI50,SR leukemia,14.9 nM
same,TGI,SR leukemia,> 16700 nM
same,GI50,SW-620 colon,2.91 nM
same,TGI,SW-620 colon,> 16700 nM
same,GI50,T-47D breast,2.52 nM
same,TGI,T-47D breast,16.3 nM
same,GI50,TK-10 renal,8.98 nM
same,GI50,UACC-257 melanoma,13.5 nM
same,TGI,UACC-257 melanoma,84.1 nM
same,GI50,UACC-62 melanoma,27.2 nM
same,TGI,UACC-62 melanoma,85.4 nM
same,GI50,UO-31 renal,7.73 nM
same,TGI,UO-31 renal,53.2 nM
